The data set deals with 4T1 cells. Briefly: Photothermal effect in vitro: cell viability by WST-1 assay with/without near-infrared irradiation. The conditions noted are these: Triton X 0.1%. As for the experimental part: To evaluate photothermal effect in in vitro, cells were seeded (1×10^4 cells/well) in 96 well-plate and incubated for 12 h. […] Then, the well was irradiated with near-infrared light for 5 min and incubated again for 24 hours. Then, cell viability was measured using WST-1 assay.

For Triton X, the “Cell viability (%)” value by setting is: (control of Table 1 (GNS experiment, near-infrared irradiation)) 5.02%; (control of Table 2, NIR irradiated) 10.58%; (control of Table 2, no NIR) 10.23%.

The record behind these values is patent publication US20250177532A1, “TEMPERATURE-SENSITIVE HYDROGEL FOR CANCER TREATMENT CAPABLE OF PHOTOTHERMAL THERAPY AND PREPARATION METHOD THEREFOR” (KOREA NATIONAL UNIVERSITY OF TRANSPORTATION …, priority 2022, published 2025).
